# Laboratory results published in patent US7018836B1, “P-TEFb compositions, methods and screening assays” (priority 1996, dated 2006).
# Experiments:
# RNA polymerase II [1] = biological target: T1, RNA polymerase II (Drosophila melanogaster, UniProt P04052); experiment: Immobilized template add-back assay, elongation by isolated early elongation complexes; format: biochemical; settings: added prior to the chase
# T1 construct: endogenous in cells; host or cells: Drosophila Kc cell nuclear extract; washed early elongation complexes on immobilized actin A2 template
# Protocol: Since P-TEF was first identified using an immobilized template assay, the ability of HeLa NE to generate DRB-sensitive elongation complexes when added back to isolated EECs was examined. Drosophila actin A2 DNA template and Kc cell NE was used to form EECs containing Drosophila RNA polymerase II. An immobilized A2 template was preincubated with Kc cell NE and then pulsed for 30 sec with [α-^32P] CTP. The resulting EECs were isolated, and washed. Only short transcripts were produced during the pulse and the labeled […] were removed by the washing protocol. […] However, addition of Kc cell NE to the chase, allowed some EECs to enter productive elongation and make long DRB-sensitive transcripts. When a HeLa NE that was capable of producing high levels of DRB-sensitive transcription was added to the chase, DRB-sensitive transcripts were also produced.
# [2] = system: transcription in Drosophila extract depleted of P-TEFb; experiment: Transcription activity of recombinant protein added into Drosophila extract depleted of P-TEFb (Table 1); format: biochemical
# RNA polymerase II [3] = experiment: Kinase assay of recombinant P-TEFb subunits with RNA polymerase II as substrate (Table 1); format: biochemical, Drosophila
# Protocol: 0.4 μl of purified RNA polymerase II and various protein samples were mixed in 18 μl of 55 mM HMK. The reaction was then initiated by the addition of 2 μl of a solution containing 2 μCi of [γ-^32P]ATP (ICN) and unlabeled ATP at 10 μM, or only unlabeled ATP at concentrations from 1 to 100 μM or other NTPs or dNTPs at concentrations of 1 to 100 μM. Reactions were incubated for the indicated times at 23° C. and then terminated with SDS loading buffer. Samples were analyzed on a 6–15% SDS polyacrylamide gel which was silver stained, dried and subjected to autoradiography if the assay contained label.
# Using the CTD Kinase assay, as previously described in Example 2, Section A.7, both HBL1-1 (SEQ ID NO:45), HBL2(SEQ ID NO:47) and HBL3 (SEQ ID NO:50) were substituted for the large subunit in the Drosophila transcription system. Alone “PITARLE” has little kinase activity and no detectable activity in transcription.
# T1 sequence (P04052 whole entry): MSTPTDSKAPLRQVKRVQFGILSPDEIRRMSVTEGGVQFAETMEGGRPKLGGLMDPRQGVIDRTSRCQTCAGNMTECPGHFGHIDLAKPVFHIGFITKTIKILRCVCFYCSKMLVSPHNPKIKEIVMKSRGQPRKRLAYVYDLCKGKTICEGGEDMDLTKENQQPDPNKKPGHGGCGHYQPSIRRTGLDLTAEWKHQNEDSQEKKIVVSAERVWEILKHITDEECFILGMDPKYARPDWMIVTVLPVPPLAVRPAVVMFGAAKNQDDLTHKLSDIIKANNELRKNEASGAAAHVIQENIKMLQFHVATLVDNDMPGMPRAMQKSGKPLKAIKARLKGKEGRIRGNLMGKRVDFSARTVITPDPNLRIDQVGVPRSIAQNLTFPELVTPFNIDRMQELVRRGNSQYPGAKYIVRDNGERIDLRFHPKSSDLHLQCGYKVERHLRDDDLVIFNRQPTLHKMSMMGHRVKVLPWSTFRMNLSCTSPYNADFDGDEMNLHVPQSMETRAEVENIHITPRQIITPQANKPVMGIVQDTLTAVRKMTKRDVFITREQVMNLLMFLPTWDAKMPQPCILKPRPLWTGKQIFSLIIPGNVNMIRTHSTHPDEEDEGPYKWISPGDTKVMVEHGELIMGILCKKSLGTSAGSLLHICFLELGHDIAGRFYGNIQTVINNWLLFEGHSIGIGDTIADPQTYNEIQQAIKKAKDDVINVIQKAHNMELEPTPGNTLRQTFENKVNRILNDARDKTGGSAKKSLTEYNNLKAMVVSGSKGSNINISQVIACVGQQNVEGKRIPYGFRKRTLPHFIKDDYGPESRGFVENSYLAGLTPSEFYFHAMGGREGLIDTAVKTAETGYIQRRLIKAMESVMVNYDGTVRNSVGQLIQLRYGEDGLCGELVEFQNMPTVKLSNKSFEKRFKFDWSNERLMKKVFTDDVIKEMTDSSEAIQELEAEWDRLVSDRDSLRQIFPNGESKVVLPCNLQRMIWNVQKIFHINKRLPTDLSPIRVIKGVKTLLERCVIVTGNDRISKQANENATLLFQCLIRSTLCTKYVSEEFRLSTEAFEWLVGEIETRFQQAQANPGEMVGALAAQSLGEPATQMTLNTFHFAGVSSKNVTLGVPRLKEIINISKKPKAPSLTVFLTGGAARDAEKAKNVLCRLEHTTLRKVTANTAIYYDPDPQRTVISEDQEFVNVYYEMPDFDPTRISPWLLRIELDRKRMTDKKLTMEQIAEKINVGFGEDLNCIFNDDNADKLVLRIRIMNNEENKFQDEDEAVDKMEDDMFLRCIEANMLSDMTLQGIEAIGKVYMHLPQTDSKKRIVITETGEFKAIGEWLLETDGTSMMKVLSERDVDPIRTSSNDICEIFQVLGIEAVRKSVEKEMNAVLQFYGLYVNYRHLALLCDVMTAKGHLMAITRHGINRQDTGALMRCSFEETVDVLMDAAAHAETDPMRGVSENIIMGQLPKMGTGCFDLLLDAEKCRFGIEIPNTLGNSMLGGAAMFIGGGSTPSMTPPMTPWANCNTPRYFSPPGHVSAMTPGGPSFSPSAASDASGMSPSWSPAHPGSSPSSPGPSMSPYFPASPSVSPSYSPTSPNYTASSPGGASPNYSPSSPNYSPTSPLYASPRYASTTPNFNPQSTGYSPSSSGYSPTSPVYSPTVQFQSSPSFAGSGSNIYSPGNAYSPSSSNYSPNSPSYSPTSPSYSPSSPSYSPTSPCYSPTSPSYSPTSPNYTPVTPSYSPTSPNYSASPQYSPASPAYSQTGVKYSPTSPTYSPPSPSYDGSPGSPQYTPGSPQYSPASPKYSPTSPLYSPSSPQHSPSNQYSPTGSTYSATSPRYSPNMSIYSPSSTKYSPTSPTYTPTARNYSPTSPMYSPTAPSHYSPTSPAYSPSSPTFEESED
Substance,elongation by all EECs (RNA polymerase II [1]),Transcription activity [2],Kinase activity (RNA polymerase II [3]; RNA polymerase II as substrate),stimulation of the activity of PITALRE by the cyclin subunit (RNA polymerase II [3]; phosphorylation of the CTD of RNA polymerase II)
α-amanitin,inhibited,–,–,–
"PITALRE: human P-TEFb small (kinase) subunit, SEQ ID NO:6, HIS-tagged, baculovirus expressed",–,none,very little,approximately 100 fold
